Results taken from US4254135A, “3-Amino-4-hydroxypyrrolidines” (A. H. Robins Company, Inc., priority 1979, dated 1981).
Counter-ions that a name gives are not always drawn.

Experiment: Antitetrabenazine test (blocking of depressant effects induced in mice by intravenous tetrabenazine), antidepressant activity
Format: in vivo
Conditions: Mus musculus, ip, compound intraperitoneally, tetrabenazine intravenously

SMILES	ED50 [mg/kg]
CCN1C[C@@H](O)[C@H](N(C(=O)c2ccccc2)c2ccccc2)C1 (relative stereo) [Example 29, Trans-N-(1-ethyl-4-hyroxy-3-pyrrolidinyl)-N-phenylbenzamide (E)-2-butenedioate]	2.7
CCN1C[C@@H](O)[C@H](N(C(=O)c2ccc(Cl)cc2)c2ccccc2)C1 (relative stereo) [Example 28, Trans-4-chloro-N-(1-ethyl-4-hydroxy-3-pyrrolindinyl)-N-phenylbenzamide Fumarate]	2.9
CCN1C[C@@H](O)[C@H](N(C(=O)c2ccccc2)C2CCCCC2)C1 (relative stereo) [Example 50, Trans-4-[(benzoyl)(cyclohexyl)amino]-1-ethyl-3-pyrrolidinol Fumarate [1:1]]	0.3
CCN1C[C@@H](N(C(=O)c2ccc(Cl)cc2)c2ccccc2)[C@H](OC(=O)c2ccc(Cl)cc2)C1 (relative stereo) [Example 27, Trans-4-chlorobenzoic Acid Ester with 4-[(4-Chlorobenzoyl)(phenyl)amino]-1-ethyl-3-pyrrolidinol (E)-2-butenedioate (3:4)]	1.1
